Non-standard residues stand in square brackets, D forms with d. Residues, ends and D or L forms follow the SMILES beside them. Groups on a side chain read outwards from the residue. No end group written: not given here. *: point of attachment. Biotin = O=C1N[C@H]2[C@H](CS[C@H]2CCCCC(=O)*)N1; Ahx = NCCCCCC(=O)O
Key:
[1] = tested on: BL41 Burkitt's lymphoma cells (CD40+); assay: Apoptosis of BL41 Burkitt's lymphoma cells, flow cytometry after DiOC6 labelling; format: cell-based; conditions: 16 hours
Protocol: (§1) The agonist effect of the ligands was tested by means of a simple biological test which is based on the property of certain B lymphomas of entering into apoptosis during the bridging of their membranous CD40 molecule (Tong et al., 1999). In fact, these B lymphomas enter into apoptosis during the bridging of their CD40 molecule by an anti-CD40 antibody or by soluble CD40L. The agonist ligands of CD40 will similarly induce an increase in the apoptosis of Burkitt's lymphoma cells which is measured by a precise analysis with flow cytometry.
(§2) BL41 Burkitt's or Raji (ATCC CCL-86) lymphoma cells (5.10^5/mL) two similar cell lines, are cultured in the presence of the different ligands at the desired concentrations. After 16 hours, the cells are labelled with 3,3′-dihexyloxacarbocyanine iodide (DiOC6) at 40 nM (Petit et al., 1995) in order to evaluate the percentage of apoptotic cells using flow cytometry.

[2] = target: T1, CD40-CD40L interaction (human CD40 muIg fusion protein, human CD154 muCD8 fusion protein) (Homo sapiens, UniProt P25942); assay: BIAcore inhibition of the CD40-CD40L interaction; format: binding; conditions: ligand at 1 μM, CD40L at 35 nM
T1 construct: purchased ANCELL Corporation
Excerpt: (§3) The BIAcore 3000 is a device which allows the study of the interactions between two molecules. Based on surface plasmon resonance, it makes it possible to carry out measurements in real time and thus to follow the interaction kinetics (association and dissociation) of an “analyte” (which is found in an injected solution) with a “ligand” (immobilized on a microchip supporting the measurement). Kinetic measurements at different concentrations of analyte make it possible to calculate the affinity constants of the interaction between the ligand and the analyte. The microchip contains four cells with different measurements, which makes it possible to directly compare a reference cell on which a non-pertinent protein (a protein which has no affinity for the analyte studied but close to the ligand) is immobilized, with the cell on which the ligand is immobilized.
(§4) The test is carried out in two stages: measurement of the direct interaction of the ligands with the CD40 immobilized on the microchip and measurement of the inhibition of the CD40-CD40L interaction by the ligands.
(§5) Rabbit antibodies directed against the constant part of mouse immunoglobulins were immobilized on a microchip. […]
In order to regenerate the cells (i.e. to remove all the proteins adsorbed in non-covalent manner), a 10 mM HCl solution is injected at 5 μL/min over 1 minute. The cells are then ready for a new analysis.

[3] = target: T2, recombinant CD40 (human CD40 muIg fusion protein) (Homo sapiens, UniProt P25942); assay: BIAcore direct interaction of the ligands with immobilized CD40; format: binding; conditions: BIAcore 3000, kinetics of direct association to immobilized CD40, 30 μL/min over 4 minutes; read-out: dissociation constant
T2 construct: purchased ANCELL Corporation, Bayport, Minn
Excerpt: as §3, §4, §5
In order to regenerate the cells (i.e. to remove all the proteins adsorbed in a non-covalent manner), a 50 mM HCl solution is injected at 5 μL/min over 1 minute. The cells are then ready for a new analysis.

[4] = tested on: Raji (ATCC CCL-86) lymphoma cells (CD40+); assay: Apoptosis of Raji lymphoma cells, flow cytometry after DiOC6 labelling; format: cell-based
Protocol: as §1, §2

T1 sequence (P25942 21-193 limits assumed): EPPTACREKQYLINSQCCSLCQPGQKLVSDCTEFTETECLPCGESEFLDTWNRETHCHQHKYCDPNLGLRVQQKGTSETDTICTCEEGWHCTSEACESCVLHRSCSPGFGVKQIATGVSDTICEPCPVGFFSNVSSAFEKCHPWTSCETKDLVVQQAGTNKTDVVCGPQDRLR
T2 sequence (P25942 21-193 limits assumed): as above

## C[C@H]1NC(=O)[C@H](CCCCNC(=O)CCCCCNC(=O)[C@H](Cc2ccc(O)cc2)NC(=O)[C@H](Cc2ccc(O)cc2)NC(=O)CNC(=O)[C@@H](N)CCCCN)NC(=O)[C@@H](C)NC(=O)[C@H](CCCCNC(=O)CCCCCNC(=O)[C@H](Cc2ccc(O)cc2)NC(=O)[C@H](Cc2ccc(O)cc2)NC(=O)CNC(=O)[C@@H](N)CCCCN)NC(=O)[C@@H](C)NC(=O)[C@H](CCCCNC(=O)CCCCCNC(=O)[C@H](Cc2ccc(O)cc2)NC(=O)[C@H](Cc2ccc(O)cc2)NC(=O)CNC(=O)[C@@H](N)CCCCN)NC1=O [L4] (cyclo(K([Ahx-Tyr-Tyr-Gly-Lys])[dA]K([Ahx-Tyr-Tyr-Gly-Lys])[dA]K([Ahx-Tyr-Tyr-Gly-Lys])[dA]))
[1]; ligand at 12.5 μM, DiOC6 flow cytometry (FIG. 5C)
  specific apoptosis: 24%

## C[C@H]1NC(=O)[C@H](CCCCNC(=O)CCCCCNC(=O)[C@H](Cc2ccc(O)cc2)NC(=O)[C@H](Cc2ccc(O)cc2)NC(=O)[C@H]2CCCN2C(=O)[C@@H](N)CCCCN)NC(=O)[C@@H](C)NC(=O)[C@H](CCCCNC(=O)CCCCCNC(=O)[C@H](Cc2ccc(O)cc2)NC(=O)[C@H](Cc2ccc(O)cc2)NC(=O)[C@H]2CCCN2C(=O)[C@@H](N)CCCCN)NC(=O)[C@@H](C)NC(=O)[C@H](CCCCNC(=O)CCCCCNC(=O)[C@H](Cc2ccc(O)cc2)NC(=O)[C@H](Cc2ccc(O)cc2)NC(=O)[C@H]2CCCN2C(=O)[C@@H](N)CCCCN)NC1=O [L40] (cyclo(K([Ahx-Tyr-Tyr-dP-Lys])[dA]K([Ahx-Tyr-Tyr-dP-Lys])[dA]K([Ahx-Tyr-Tyr-dP-Lys])[dA]))
[2]
  inhibition of the binding of CD40L to CD40: 100%

## C[C@H]1NC(=O)[C@H](CCCCNC(=O)CCCCCNC(=O)[C@H](Cc2ccc(O)cc2)NC(=O)[C@H](Cc2ccc(O)cc2)NC(=O)CNC(=O)[C@@H](N)CCCCN)NC(=O)[C@@H](CCCCNC(=O)CCCC[C@@H]2SC[C@@H]3NC(=O)N[C@@H]32)NC(=O)[C@H](CCCCNC(=O)CCCCCNC(=O)[C@H](Cc2ccc(O)cc2)NC(=O)[C@H](Cc2ccc(O)cc2)NC(=O)CNC(=O)[C@@H](N)CCCCN)NC(=O)[C@@H](C)NC(=O)[C@H](CCCCNC(=O)CCCCCNC(=O)[C@H](Cc2ccc(O)cc2)NC(=O)[C@H](Cc2ccc(O)cc2)NC(=O)CNC(=O)[C@@H](N)CCCCN)NC1=O [L41] (cyclo(K([Ahx-Tyr-Tyr-Gly-Lys])[dA]K([Ahx-Tyr-Tyr-Gly-Lys])[dA]K([Ahx-Tyr-Tyr-Gly-Lys])[dK](Biotin)))
[3]
  Kd: 28 nM

## H-Lys-Pro-Tyr-Tyr-Ahx-OH (H-KPYY[Ahx]-OH; SMILES NCCCC[C@H](N)C(=O)N1CCC[C@H]1C(=O)N[C@@H](Cc1ccc(O)cc1)C(=O)N[C@@H](Cc1ccc(O)cc1)C(=O)NCCCCCC(=O)O) [L45, control peptide in which D-Proline is replaced by L-Proline]
[1]; dose-response (FIG. 5B, 5C)
  biological activity (induction of apoptosis), in words: no activity

## L43: compound of formula (III-a) in which Rc is Ahx-(D)Pro-Tyr-Tyr-NH—(CH2)5—CO— (peptide [Ahx][dP]YY[Ahx]; chain K[dA]K[dA]K[dA]; also: three copies of chain 1 amide-linked via C-terminal Ahx to the three Lys side-chain amines of the ring (chain 2), head-to-tail to a chain's N/C-terminus)
[4]; Raji cells, 16 hours, dose-response (FIG. 5D)
  effectiveness in inducing apoptosis, in words: less effective than its homologue L4
[2]
  inhibition of the binding of CD40L to CD40: 30%

## L62: compound of formula (III-a) in which Rc is H-Lys-ψ(CH2N)-(D)Pro-Tyr-Tyr-NH—(CH2)5—CO— (peptide H-K[dP]YY[Ahx]; chain K[dA]K[dA]K[dA]; also: reduced bond psi(CH2N) between Lys1 and D-Pro2 of chain 1, three copies of chain 1 amide-linked via C-terminal Ahx to the three Lys side-chain amines of the ring (chain 2), head-to-tail to a chain's N/C-terminus)
[4]; Raji and BL41 (CD40+) versus Jurkat (CD40−) cells, 16 hours (FIGS. 8A, 8B)
  effectiveness and selectivity of apoptosis induction, in words: effective and selective ligand

Source: patent US8357654B2, “Multimeric CD40 ligands, method for preparing same and use thereof for preparing drugs” (Centre National de la Recherche Scientifique, priority 2004, dated 2013)
